For orientation: Cmax means the highest concentration seen after dosing. By CL/F is commonly meant clearance divided by bioavailability, as obtained after extravascular dosing. For orientation: Tmax means the time at which the peak concentration occurs. A word on the bioavailability: it is dose-corrected exposure relative to a reference, in per cent.

Data set [1] is described as follows: Microsomal stability, dog. Format: in vitro ADME. The note with it: for CLint in vivo: scaled up using PBSF. On the procedure:
The metabolic stability assay was performed by incubating compounds individually (0.8, 4, or 20 µM) with mouse, rat, dog and human liver microsomes (Fisher, 0.5 mg/mL protein concentration) at 37 °C. The metabolic reaction was initiated by the addition of a NADPH-regenerating system and quenched at various time points by the addition of acetonitrile according to a published method.
The remaining concentration of each compound was measured as a ratio of peak area to the internal standard. The log peak area ratio was plotted vs. time (h), and the slope was determined to calculate the elimination rate constant [k = (− 2.303) * slope]. If deviation from first order kinetics was evident, only the initial linear portion of the plot was used to determine the rate constate, k. The half-life (h) was calculated as t1/2 = 0.693/k. Intrinsic clearance in vitro was calculated as CLintin vitro = (1000)*(0.693/t1/2*60)/0.5, where microsomal concentration in the reaction solution was 0.5 mg/mL; 1000 and 60 are scaling factors for volume (µL) and time (min), respectively. The intrinsic in vitro clearance was scaled to the intrinsic in vivo clearance using physiology based scaling factor (PBSF): CLint in vivo= CLint in vitro *PBSF: (microsome protein/gram liver) * (gram liver/kg b.w.), with PBSF: 47 (mouse), 47(rat), 58 (dog), 32 (human); and liver weight proportions: 54.9 (mouse), 36.6 (rat), 32.9 (dog) 25.7 (human).

Data set [2] is described as follows: Mouse plasma pharmacokinetics, single PO or IV dose. The data set is classed as in vivo, female C57BL/6 mice. The note with it: for AUCinf / CL / Cmax / Half-life / Vss / CL/F / Tmax / V/F: mouse plasma; for bioavailability: po, read-out: Mouse F (oral bioavailability). From the text:
Studies were undertaken to determine the plasma pharmacokinetics of SJ733 and SJ311. These studies included: (i) single oral gavage (PO) or intravenous (IV) dose administration to female C57BL/6 mice; (ii) single PO or IV dose administration to male Sprague Dawley (SD) rats; (iii) single PO or IV dose administration to male beagle dogs; (iv) toxicokinetic (TK) study following single PO administration to male SD rats. The PO and IV formulation used for mouse studies at SJCRH was 1% hydroxypropyl-beta-cyclodextrin (w/v), 10% ethanol (v/v), 10% propylene glycol (v/v), 40% PEG-400 (v/v) and 39% PBS (pH 7.4) isotonic (v/v). Compounds were dosed orally as suspensions, and intravenously as filtered solutions. Compound concentrations were confirmed post filtration using UV spectroscopy. The IV formulation used for rat studies (Monash University) was the same as that used for mice. For PO dosing to rats (Monash University) at 2 mg/kg, a suspension formulation was used containing 0.5% (w/v) hydroxypropyl methylcellulose, 0.5% (v/v) benzyl alcohol and 0.4% (v/v) Tween 80. The formulation used for rat studies at SRI (PO, high dose) was the same as that used in mouse PK studies. The formulation for the high dose TK study at SRI was 0.5% methylcellulose in sterile water. The formulation used for dog studies was the same as that used in mouse PK studies. The PO and IV PK of SJ733 and SJ311 were studied in female C57BL/6 mice. Mice had access to water and food ad libitum throughout the pre- and post-dose sampling period. Doses were administered at 15 mg/kg for IV and 10–200 mg/kg for PO with 20 mice in each dosage group. Two samples were taken from each mouse, with the first sample being a retro-orbital bleed (~ 200 µL) at the indicated time point (5, 15, 30 min, 1, 4, 24 h) and the second being terminal cardiac puncture (~ 500 µL) at the indicated time point (usually 48 h). EDTA disodium was used as anticoagulant and added to whole blood (10% volume of EDTA for 1% w/v final concentration) followed by centrifugation at 13,000 rpm for 2 min. Plasma was collected and stored frozen at -20 °C until analysis. For studies at SJCRH, all blood samples were kept on wet ice after collection and processed to plasma within 30 min of collection. Plasma samples were kept on dry ice and transferred to ≤ − 20 °C until analysis. Mouse plasma samples were extracted via protein precipitation with cold acetonitrile. The detection of the SJ733, SJ311, and warfarin (IS) was conducted by LC–MS with SIR or LC–MS/MS with MRM detection. Aliquots (3 µL) were injected onto a Waters Acquity UPLC equipped with an ABI Sciex 6500 Qtrap MS/MS and separated using an Acquity BEH C18 column (50 × 2.1 mm, 1.7 µm) with a methanol–water gradient containing 0.1% formic acid. Plasma concentration time (Ct) data for SJ733 and SJ311 were grouped by nominal time point, and the mean Ct values were subjected to noncompartmental analysis (NCA) using Phoenix WinNonlin 8.1 (Certara USA, Inc., Princeton, NJ). For all experiments, the area under the Ct and first moment curves (AUC, AUMC) were estimated using the “linear up log down” method. The terminal phase was defined as at least three time points at the end of the Ct profile, and the elimination rate constant (Kel) was estimated using an unweighted log-linear regression of the terminal phase. The terminal elimination half-life (T1/2) was estimated as 0.693/Kel, and the AUC from time 0 to infinity ([…]) was estimated as the AUC to the last time point (AUClast) + Clast (predicted)/Kel with the […] similarly calculated. Additional parameters estimated included observed maximum concentration (Cmax), time of Cmax (Tmax), concentration at the last observed time point (Clast), time of Clast (Tlast), and the apparent oral terminal volume of distribution (V/F). The apparent oral clearance (CL/F), systemic clearance (CL) and volume of distribution at steady state (Vss) were all estimated using standard formulae [19].

Where [3] appears, read: mouse, single PO 100 mg/kg vs IV.
Setting [4] is: dog microsomes, 0.8 µM, independent replicate to Table 4.
Setting [5] is: dog microsomes, 4 µM, independent replicate to Table 4.
Setting [6] is: dog microsomes, 20 µM, independent replicate to Table 4.
Where [7] appears, read: female, C57BL/6, mouse, plasma, mouse, summary over the oral doses studied.
[8] abbreviates: female, C57BL/6, single IV 15 mg/kg, read-out: Half-life.

Like-named read-outs stand apart in the source and are kept apart here.

For the compound `N#Cc1cc(NC(=O)C2c3ccccc3C(=O)N(CC(F)(F)F)C2c2cn[nH]c2)ccc1F` (racemic) [(r)-SJ311], in data set [1] (dog microsomes, 20, 4, 0.8 µM), the CLint in vitro is recorded as less than 7 µl/min/mg protein and the CLint in vivo is less than 8.3 mL/min/kg. In addition, in data set [2] (single IV 15 mg/kg), the AUCinf came to 20.7 µM·h, the CL amounted to 27.2 mL/min/kg, the concentration peaked (Cmax) at 13.4 µM and the Half-life is given as 1.56 h. In data set [2] (single IV 15 mg/kg), this compound gave a Vss of 2.11 L/kg. In data set [2] (single PO 100 mg/kg), this compound showed an AUCinf of 42 µM·h, a CL/F of 89 mL/min/kg, a Cmax of 10.5 ± 5.3 µM and a Half-life of 4.20 h. Further, in data set [2] (single PO 100 mg/kg), the Tmax worked out at 0.5 h and the V/F is listed as 32.4 L/kg. For the same compound, the F in data set [2] (setting [3]) came to 23.1%.
`N#Cc1cc(NC(=O)C2c3ccccc3C(=O)N(CC(F)(F)F)C2c2cccnc2)ccc1F` (racemic) [(r)-SJ733] displayed a CLint in vitro in data set [1] (setting [4]) of less than 7 µl/min/mg protein. Further, the CLint in vivo in data set [1] (dog microsomes, 0.8 µM) is less than 8.3 mL/min/kg. The same compound displayed a CLint in vitro in data set [1] (setting [5]) of less than 7 µl/min/mg protein. In addition, the CLint in vivo in data set [1] (dog microsomes, 4 µM) was less than 8.3 mL/min/kg. This compound had a CLint in vitro in data set [1] (setting [6]) of less than 7 µl/min/mg protein. Further, the CLint in vivo in data set [1] (dog microsomes, 20 µM) is less than 8.3 mL/min/kg. In data set [2] (single IV 15 mg/kg), this compound returned an AUCinf of 10.8 µM·h, a CL of 49.7 mL/min/kg, a Cmax of 11.3 µM and a Half-life of 1.52 h. The same compound showed a Vss in data set [2] (single IV 15 mg/kg) of 2.41 L/kg. In addition, in data set [2] (single PO 50 mg/kg), the AUCinf was determined as 28 µM·h, the CL/F is 67 mL/min/kg, the highest level (Cmax) was 10.1 ± 4.5 µM and the Half-life came out at 1.72 h. Besides, in data set [2] (single PO 50 mg/kg), the Tmax is given as 0.5 h. In data set [2] (single PO 200 mg/kg), this compound showed an AUCinf of 155.7 µM·h, a CL/F of 54.2 mL/min/kg, a Cmax of 12.7 ± 3.2 µM and a Half-life of 14.1 h. Also, in data set [2] (single PO 200 mg/kg), the Tmax stood at 5 h and the V/F is listed as 3.23 L/kg. The compound also came in with a F in data set [2] (mouse, single PO 50 mg/kg vs IV) of 70%. In data set [2] (mouse, single PO 200 mg/kg vs IV), this compound returned an F of 98%.
As to `N#Cc1cc(NC(=O)[C@H]2c3ccccc3C(=O)N(CC(F)(F)F)[C@@H]2c2cccnc2)ccc1F` (racemic) [SJ733], the bioavailability in data set [2] (setting [7]) lay within 65 to 81%. The clearance in data set [2] (female, C57BL/6, mouse, plasma, observed in mice, read-out: in vivo clearance (converted)) is approximately 50 mL/min/kg. Besides, the Half-life in data set [2] (setting [8]) was in the range of 1.38 to 1.65 h.
In the case of `N#Cc1cc(NC(=O)[C@H]2c3ccccc3C(=O)N(CC(F)(F)F)[C@@H]2c2cn[nH]c2)ccc1F` [(+)-SJ311], in data set [1] (dog microsomes, 0.8 µM), the CLint was less than 7 µl/min/mg protein and the t1/2 is more than 4 h.
Regarding `N#Cc1cc(NC(=O)[C@H]2c3ccccc3C(=O)N(CC(F)(F)F)[C@@H]2c2cccnc2)ccc1F` [(+)-SJ733], in data set [1] (dog microsomes, 0.8 µM), the CLint is on record as less than 7 µl/min/mg protein, the t1/2 was more than 4 h and the CLint in vivo was less than 8.3 mL/min/kg. Also, the CLint in vitro in data set [1] (setting [4]) was less than 7 µl/min/mg protein. The compound further yielded a CLint in vitro in data set [1] (setting [5]) of less than 7 µl/min/mg protein. The same compound showed a CLint in vivo in data set [1] (dog microsomes, 4 µM) of less than 8.3 mL/min/kg. For the same compound, the CLint in vitro in data set [1] (setting [6]) was less than 7 µl/min/mg protein. The same compound gave a CLint in vivo in data set [1] (dog microsomes, 20 µM) of less than 8.3 mL/min/kg. In data set [2] (single PO 10 mg/kg), this compound returned an AUCinf of 4.27 µM·h, a CL/F of 83.3 mL/min/kg, a Cmax of 1.38 ± 0.21 µM and a Half-life of 3.63 h. In data set [2] (single PO 10 mg/kg), the Tmax was determined as 0.5 h and the V/F stood at 26.2 L/kg. In data set [2] (single PO 100 mg/kg), this compound showed an AUCinf of 53 µM·h, a CL/F of 67 mL/min/kg, a Cmax of 11.7 ± 1.2 µM and a Half-life of 3.17 h. For the same compound, the Tmax in data set [2] (single PO 100 mg/kg) amounted to 0.5 h. This compound also had a F in data set [2] (mouse, single PO 10 mg/kg vs IV) of 65%. Besides, in data set [2] (setting [3]), the F is given as 80.8%.
As for `N#Cc1cc(NC(=O)[C@H]2c3ccccc3C(=O)N(CC(F)(F)F)[C@@H]2c2cn[nH]c2)ccc1F` [SJ311], in data set [2] (setting [7]), the bioavailability lay within 22 to 23%. The Half-life in data set [2] (setting [8]) lay within 1.38 to 1.56 h. The “Mouse F (oral bioavailability)” value in data set [2] (mouse, summary over the oral doses studied) was found to be 23%.

The values above are taken from publication PMC7893776, “Selecting an anti-malarial clinical candidate from two potent dihydroisoquinolones” (Malaria Journal, 2021).
